# According to patent US10959963B2, “Method for the treatment of fatty liver disease” (Golden Biotechnology Corporation, priority 2013, dated 2021):
# Columns and labels:
# Format in all cases: in vivo
# C57BL/6 mice [1] = assay: Fibrosis of steatohepatitis caused by non-chemical injury (STZ + high-fat diet model), histology and blood/plasma biochemistry
# Excerpt: (§1) In order to simulate an unhealthy diet tendency in humans, such as excess consumption of high caloric food, the example constructs an animal model using […] fed a high fat diet to evaluate the effects of chronic liver injury.
# (§2) The assay simulates liver disease caused by a high fat diet through a “Metabolic Syndrome” model. That is, the model is different from conventional chemical induced models caused by toxic components such as CCl4. This model is distinguishable from the models caused by virus or alcohol.
# (§3) The establishment of a long term high-fat diet is described as follows: First, the C57BL/6 mice were obtained from Charles River Laboratories Japan (Kanagawa, Japan). Animals were housed under specific-pathogen-free (SPF) conditions. The liver injury was developed in 18 male mice by subcutaneous injection of Streptozotocin (STZ) 2 days after birth (day 2). After 4 weeks, a high-fat commercial rodent diet ad libitum (CLEA JAPAN) were supplied. These mice were randomized into 3 groups before the treatment. The test compound was administered in a volume of 10 ml/kg twice a day for three weeks. In the control group (group A), six […] were fed with vehicle (corn oil from Sigma Chemical Co.) via intubation. Six mice in group B were orally administered vehicle and the test compound at a dose of 48 mg/kg twice a day (96 mg/kg per day).
# (§4) (1) HE Staining. The HE staining method is performed as follows: Liver slices are cut from the livers' left side, embedded in Tissue-Tek® OCT™ Compounds (Sakura Finetek, Japan), snap frozen in liquid nitrogen, and stored at −80° C. 5 μm sections are cut, air-dried, fixed in acetone, air dried again and finally washed with phosphate buffered saline (PBS). Then, in the hematoxylin and eosin staining method, liver sections will be prefixed in a Bouin solution (formalin-acetic acid) for one week and then stained with Lillie-Mayer's Hematoxylin (Muto Pure Chemicals, Japan) and eosin solution (Wako, Japan) to visualize the lipid deposition, inflammations, cell necrosis and fibrosis, or stained with Masson's trichromic solution to visualize extra cellular matrix and collagen fibers of liver fibrosis development.
# (§5) (2) Sirius Red Staining. The Sirius Red staining method is performed as follows: Liver slices are cut from the livers' left side, embedded in Tissue-Tek® OCT™ Compounds (Sakura Finetek, Japan), snap frozen in liquid nitrogen, and stored at −80° C. 5 μm sections are cut, air-dried, fixed in acetone, air dried again and finally washed with phosphate buffered saline (PBS). Then, liver sections are stained with a Picro-Sirius Red Solution (Waldeck GmbH & KG, Germany) to observe collagen deposition.
# (§6) (3) Immunohistochemistry of Collagen Type 3. The immunohistochemistry assay for collagen Type 3 is performed as follows: Liver slices are cut from the livers' left side, embedded in Tissue-Tek® OCT™ Compounds (Sakura Finetek, Japan), snap frozen in liquid nitrogen, and stored at −80° C. 5 μm sections are cut, air-dried, fixed in acetone, air dried again and finally washed with phosphate buffered saline (PBS). For immunohistochemistry, endogenous peroxidase activity will be blocked by using 0.03% H2O2 for 5 minutes, followed by incubation with Block Ace (Dainippon Sumitomo Pharm, Japan) for 10 minutes. The sections will be incubated with the optimal dilution of anti-Type 3 collagen antibody overnight at 4° C. After incubation with an appropriate secondary antibody, the substrate reactions are performed using DAB/H2O2 solution (Nichirei, Japan).
# (§7) (1) Whole Blood Glucose. Blood samples were collected in heparinized syringes (Novo-Heparin 5,000 units/5 ml, Mochida Pharmaceutical, Japan) by cardiac puncture, kept on ice and centrifuged at 1,000×g at 4° C. for 15 minutes. The supernatant was collected and stored at −80° C. until use. Blood glucose was measured in whole blood samples using G Checker (Sanko Junyaku Co. Ltd., Japan). […]
# C57BL/6 mice [2] = assay: Reduction of fatty liver condition by Compound 1 with ergosterol versus Compound 1 alone (STZ + high-fat diet model), liver histology; settings: Compound 1 48 mg/kg twice a day oral, with or without ergosterol 12 mg/kg twice a day
# C57BL/6 mice [3] = assay: Fatty liver disease caused by non-chemical injury (STZ + high-fat diet Metabolic Syndrome model), histology and blood/plasma biochemistry; settings: 48 mg/kg oral twice a day
# Excerpt: as §1, §2, §3, §4, §5, §6, §7
compound,measurement,setting,value
"COC1=C(OC)C(O)C(C/C=C(\C)CC/C=C(\C)CCC=C(C)C)C(C)C1=O (stereo not shown) [Compound 1, 4-hydroxy-2,3-dimethoxy-6-methyl-5 (3,7,11-trimethyl-dodeca-2,6,10-trienyl)-cyclohex-2-enone]","collagen deposition around the central veins and the bile ducts, Sirius red staining",C57BL/6 mice [1]; compared to vehicle Group A,reduced
same,"collagen fibers in the sinusoidal area, collagen Type 3 immunostaining",C57BL/6 mice [1]; compared to vehicle Group A,tended to reduce the thickness and/or the length of the collagen fibers
same,"macro-vesicular fat deposition, HE-stained liver sections",C57BL/6 mice [1]; compared to vehicle Group A,tended to decrease the macro-vesicular fat deposition
same,plasma ALT level,C57BL/6 mice [1]; vehicle Group A 47±22,38±11 U/L
same,plasma AST level,"C57BL/6 mice [1]; vehicle Group A 143±42, change not significant",167±87 U/L
same,whole blood glucose level,C57BL/6 mice [1]; vehicle Group A 728±109,566 ± 65 mg/dL
same,plasma triglyceride (TG),C57BL/6 mice [1]; vehicle Group A 758±877,704 ± 450 mg/dL
same,"collagen deposition, Sirius red staining",C57BL/6 mice [2]; vs control group,tended only slightly to decrease the collagen deposition
same,"collagen deposition (thickness of collagen fibers in the sinusoidal area), collagen Type 3 immunostaining",C57BL/6 mice [2]; vs vehicle,tended to reduce the collagen deposition
same,"infiltration of inflammatory cells, HE-stained liver sections",C57BL/6 mice [2]; vs vehicle,did not affect the infiltration of inflammatory cells
same,"macro vesicular fat deposition, HE-stained liver sections",C57BL/6 mice [2]; vs vehicle,tended to decrease the macro vesicular fat deposition
same,"collagen deposition around the central veins and the bile ducts, Sirius red staining",C57BL/6 mice [3]; compared to vehicle Group A,reduced
same,"collagen fibers in the sinusoidal area, collagen Type 3 immunostaining",C57BL/6 mice [3]; compared to vehicle Group A,tended to reduce the thickness and/or the length of the collagen fibers
same,"infiltration of inflammatory cells, HE-stained liver sections",C57BL/6 mice [3]; compared to vehicle Group A,tended to decrease the infiltration of inflammatory cells
same,"macro-vesicular fat deposition, HE-stained liver sections",C57BL/6 mice [3]; compared to vehicle Group A,tended to decrease the macro-vesicular fat deposition
same,plasma ALT level,C57BL/6 mice [3]; vehicle Group A 64±64,34±10 U/L
same,plasma AST level,C57BL/6 mice [3]; vehicle Group A 202±177,141±35 U/L
same,whole blood glucose level,C57BL/6 mice [3]; vehicle Group A 636±137,580 ± 122 mg/dL
same,plasma triglyceride (TG),C57BL/6 mice [3]; vehicle Group A 643±402,229 ± 144 mg/dL
